The values below come from US20240043382A1, “MODIFIED INDOLE ALKALOIDS FOR THERAPEUTIC USES” (priority 2020, published 2024).

Molecules are shown by their SMILES. pEC50: −log10 of the molar value.

The target of series [1] is T1, human 5-HT2A (h5-HT2A) receptor (Homo sapiens, UniProt P28223).
T1 construct: host or cells: Flp-In T-REx 293 cells
In words: 5-HT2A receptor functional assay (Gq-mediated calcium flux) of saliva-hydrolyzed modified indole alkaloids. The conditions noted are these: 5HT2A agonist activity, compounds hydrolyzed by treatment with human saliva; for pEC50: Flp-In T-REx 293 cells expressing h5-HT2A, peak calcium flux; for Emax % 5-HT (± SEM): normalized to 5-HT (100%). It is filed as cell-based. On the technique in general: A change in cytosolic calcium serves as a functional read-out for many receptors and channels.

The target of series [2] is T2, human 5-HT2C (h5-HT2C) receptor (Homo sapiens, UniProt P28335).
T2 construct: host or cells: Flp-In T-REx 293 cells
T2 sequence (P28335 33-458): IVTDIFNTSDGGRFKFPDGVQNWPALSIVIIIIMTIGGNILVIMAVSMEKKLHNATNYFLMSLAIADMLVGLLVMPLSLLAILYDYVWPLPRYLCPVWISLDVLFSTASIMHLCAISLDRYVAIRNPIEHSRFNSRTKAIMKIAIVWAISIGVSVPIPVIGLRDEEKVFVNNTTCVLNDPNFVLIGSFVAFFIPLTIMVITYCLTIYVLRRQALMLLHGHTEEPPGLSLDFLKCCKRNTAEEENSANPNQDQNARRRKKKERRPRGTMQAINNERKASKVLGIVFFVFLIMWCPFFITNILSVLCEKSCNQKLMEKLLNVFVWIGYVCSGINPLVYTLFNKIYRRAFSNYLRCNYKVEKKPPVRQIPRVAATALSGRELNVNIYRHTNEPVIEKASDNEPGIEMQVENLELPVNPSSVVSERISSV
Kind of series: 5-HT2C receptor functional assay (Gq-mediated calcium flux) of saliva-hydrolyzed modified indole alkaloids. It is filed as cell-based. The conditions noted are these: 5HT2C agonist activity, compounds hydrolyzed by treatment with human saliva; for pEC50: Flp-In T-REx 293 cells expressing h5-HT2C, peak calcium flux; for Emax % 5-HT (± SEM): normalized to 5-HT (100%).

Series [3] can be described thus: Digestion of modified indole alkaloids with human salivary samples (LC-MS). It is filed as in vitro ADME. The following applies: 100 μM compound, 50 μL human saliva, 2 hours at 37° C., pH 7.5. On the procedure: Human saliva samples were collected 25 minutes before food intake after 8 hours fasting from an adult subject with no clinical symptoms. For saliva collection, saliva samples were obtained by passive drool into sterile 10 mL centrifuge tubes over a 5-min period. Immediately after collection, saliva samples were centrifuged (500 g for 10 min at 4° C.) and the supernatant was recovered and used immediately or stored at −80° C. until further use.
Eleven 100-μL reaction mixtures were prepared, consisting of: • 50 mM HEPES pH 7.5 • 50 mM NaCl • 100 μM modified indole alkaloid product (from Reactions 3, 24, 39-47, respectively) • 50 μL, of human saliva sample • 2 mM calcium chloride • 5 mM magnesium chloride
The reaction mixtures were digested for 2 hours at 37° C., and heated to 80° C. for 5 minutes to terminate the reactions. The reaction mixtures were then centrifuged at 30,000 ref and the supernatant transferred to a fresh sample tube.
One microliter of the sample was injected onto a ZORBAX StableBond-C18, 1.8 um, 2.1×50 mm column at 20° C. using a 0.3 mL/min flow rate and major ion species were detected with a 6520 Accurate-Mass Q-TOF LC-MS (Agilent) in positive mode. The mobile phase consisted of a mixture of 0.1% formic acid in acetonitrile (v/v) and 0.1% formic acid in water (v/v) was eluted under the following gradient conditions (shown in relation to acetonitrile content): 0 min-10%, 6 min-100%, 7 min-10%, 14 min-10%. The mobile phase was delivered at a flow rate of 0.3 mL/min and the total analytical run time was 14 min.

Series [4] concerns the target T1, human 5-HT2A (h5-HT2A) receptor. In words: 5-HT2A receptor functional assay (calcium flux) of modified indole alkaloids digested with calf intestinal alkaline phosphatase. It is filed as cell-based. The following applies: after 2 hours with 100 units calf intestinal alkaline phosphatase, pH 7.9, 25° C.; compared to 5-HT. On the procedure: 1 mM of 4-3-(2-(dipropylamino)ethyl)-1H-indol-4-yl dihydrogen phosphate (Compound A) was incubated with 100 units of calf intestinal alkaline phosphatase for 2 hours in buffer containing 50 mM Potassium acetate, 20 mM Tris-acetate, 10 mM Magnesium acetate, and 100 μg/ml BSA at pH 7.9 and 25° C. 1 mM of 4-3-(2-(diisopropylamino)ethyl)-1H-indol-4-yl dihydrogen phosphate (Compound B) was incubated with 100 units of calf intestinal alkaline phosphatase for 2 hours in buffer containing 50 mM Potassium acetate, 20 mM Tris-acetate, 10 mM Magnesium acetate, and 100 μg/ml BSA at pH 7.9 and 25° C. The resulting solutions containing dephosphorylated products were used in a 5-HT2A receptor functional assay. […]
Before the experiment, plates were allowed to equilibrate to room temperature, and calcium flux was measured using a […] cellular screening system (Molecular Devices, Sunnyvale, CA). Plates were read for fluorescence initially for 10 s (1 read per second) to establish a baseline and then stimulated with drug dilutions or buffer and read for an additional 120 s. Peak fluorescence in each well was normalized to the maximum fold increase over baseline. […] Data were analyzed using the sigmoidal dose-response function of Prism 5.0 or 8.0 (GraphPad Software, San Diego, CA). Relative activity (RA) was expressed as the logarithm of the ratio of Emax over EC50 parameter estimates. […]

T1 sequence (P28223 whole entry): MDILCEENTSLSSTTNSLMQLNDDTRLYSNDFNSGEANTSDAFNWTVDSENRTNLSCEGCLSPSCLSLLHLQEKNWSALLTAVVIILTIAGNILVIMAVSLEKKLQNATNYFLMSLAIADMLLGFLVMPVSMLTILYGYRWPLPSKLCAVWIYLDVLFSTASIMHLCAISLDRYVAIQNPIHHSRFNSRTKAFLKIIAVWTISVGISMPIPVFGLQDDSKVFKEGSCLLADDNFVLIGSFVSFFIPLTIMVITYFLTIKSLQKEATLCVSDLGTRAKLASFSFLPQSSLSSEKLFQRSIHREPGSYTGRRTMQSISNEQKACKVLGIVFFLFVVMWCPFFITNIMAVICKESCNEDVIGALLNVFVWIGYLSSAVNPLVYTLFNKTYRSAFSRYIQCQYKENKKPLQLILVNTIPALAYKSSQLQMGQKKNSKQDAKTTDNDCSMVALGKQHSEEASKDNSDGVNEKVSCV

Turning to `CCN(CC)CCc1c[nH]c2cccc(O[C@H]3O[C@H](CO)[C@@H](O)[C@H](O)[C@H]3O)c12` (stereo in doubt) [Hydrolyzed Compound A-4, 2-((3-(2-(diethylamino)ethyl)-1H-indol-4-yl)oxy)-6-(hydroxymethyl)tetrahydro-2H-pyran-3,4,5-triol], in series [1], the pEC50 was 8.19 and the “Emax % 5-HT (± SEM)” value is recorded as 100.1 ± 1.1 % 5-HT. Besides, in series [2], the negative logarithm of the EC50 (pEC50) is 6.59 and the “Emax % 5-HT (± SEM)” value is on record as 80.1 ± 1.9 % 5-HT.

Take `CC(C)N(CCc1c[nH]c2cccc(OC(=O)CC(=O)O)c12)C(C)C` [Compound D, 3-((3-(2-(diisopropylamino)ethyl)-1H-indol-4-yl)oxy)-3-oxopropanoic acid]: in series [3], the “conversion by human saliva to 4-hydroxy-N,N-diisopropyltryptamine (LC-MS)” value (shortened to “conversion by human saliva”) is reported as “completely hydrolyzed”.

As for `CC(=O)CC(=O)Oc1cccc2[nH]cc(CCN(C(C)C)C(C)C)c12` [Compound E, 3-(2-(diisopropylamino)ethyl)-1H-indol-4-yl 3-oxobutanoate], the “conversion by human saliva” value in series [3] was “completely hydrolyzed”.

Take `CCCN(CCC)CCc1c[nH]c2cccc(OP(=O)(O)O)c12` [Compound A, 4-3-(2-(dipropylamino)ethyl)-1H-indol-4-yl dihydrogen phosphate]: the “functional agonism of 5HT2A receptor, peak calcium flux response (FIG. 5)” value in series [4] was determined as 5HT2A agonism.

Take `CCCN(C)CCc1c[nH]c2cccc(O[C@H]3O[C@H](CO)[C@@H](O)[C@H](O)[C@H]3O)c12` (stereo in doubt) [Hydrolyzed Compound A-2, 2-(hydroxymethyl)-6-((3-(2-(methyl(propyl)amino)ethyl)-1H-indol-4-yl)oxy)tetrahydro-2H-pyran-3,4,5-triol]: the pEC50 was 8.42 in series [1] and 7.32 in series [2]. The figures for the “Emax % 5-HT (± SEM)” value in series [1] and in series [2] were 98.0 ± 1.1 % 5-HT and 90.7 ± 1.5 % 5-HT, respectively.

With `CN(CCc1c[nH]c2cccc(O[C@H]3O[C@H](CO)[C@@H](O)[C@H](O)[C@H]3O)c12)C1CC1` (stereo in doubt) [Hydrolyzed Compound A-9, 2-((3-(2-(cyclopropyl(methyl)amino)ethyl)-1H-indol-4-yl)oxy)-6-(hydroxymethyl)tetrahydro-2H-pyran-3,4,5-triol], in series [1], the pEC50 was 8.29 and the “Emax % 5-HT (± SEM)” value was 99.4 ± 2.0 % 5-HT. Further, in series [2], the pEC50 is 6.83 and the “Emax % 5-HT (± SEM)” value was found to be 79.1 ± 6.1 % 5-HT.

For `CC(C)N(CCc1c[nH]c2cccc(O[C@H]3O[C@H](CO)[C@@H](O)[C@H](O)[C@H]3O)c12)C(C)C` (stereo in doubt) [Hydrolyzed Compound A-7, 2-((3-(2-(diisopropylamino)ethyl)-1H-indol-4-yl)oxy)-6-(hydroxymethyl)tetrahydro-2H-pyran-3,4,5-triol], the pEC50 was 8.17 in series [1] and 5.81 in series [2]. Also, the figures for the “Emax % 5-HT (± SEM)” value in series [1] and in series [2] were 103 ± 1.2 % 5-HT and 94.4 ± 1.2 % 5-HT, respectively.

As to `CCCN(CC)CCc1c[nH]c2cccc(O[C@H]3O[C@H](CO)[C@@H](O)[C@H](O)[C@H]3O)c12` [Hydrolyzed Compound A-5, 2-((3-(2-(ethyl(propyl)amino)ethyl)-1H1-indol-4-yl)oxy)-6-(hydroxymethyl)tetrahydro-2H-pyran-3,4,5-triol], the pEC50 in series [1] was 8.50; in series [2], 6.93. Moreover, the “Emax % 5-HT (± SEM)” value is 99.4 ± 1.2 % 5-HT in series [1] and 89.4 ± 2.6 % 5-HT in series [2].

Turning to `CC(C)N(CCc1c[nH]c2cccc(OP(=O)(O)O)c12)C(C)C` [Compound B, 4-3-(2-(diisopropylamino)ethyl)-1H-indol-4-yl dihydrogen phosphate], in series [4], the “functional agonism of 5HT2A receptor, peak calcium flux response (FIG. 5)” value was 5HT2A agonism.

In the case of `CCN(C)CCc1c[nH]c2cccc(O[C@H]3O[C@H](CO)[C@@H](O)[C@H](O)[C@H]3O)c12` (stereo in doubt) [Hydrolyzed Compound A-1, 2-((3-(2-(ethyl(methyl)amino)ethyl)-1H-indol-4-yl)oxy)-6-(hydroxymethyl)tetrahydro-2H-pyran-3,4,5-triol], in series [1], the pEC50 was 8.40 and the “Emax % 5-HT (± SEM)” value worked out at 96.7 ± 1.1 % 5-HT. Also, in series [2], the pEC50 was 7.52 and the “Emax % 5-HT (± SEM)” value was 89.9 ± 2.1 % 5-HT.

As for `CCCN(CCC)CCc1c[nH]c2cccc(O[C@H]3O[C@H](CO)[C@@H](O)[C@H](O)[C@H]3O)c12` (stereo in doubt) [Hydrolyzed Compound A-6, 2-((3-(2-(dipropylamino)ethyl)-1H-indol-4-yl)oxy)-6-(hydroxymethyl)tetrahydro-2H-pyran-3,4,5-triol], in series [1], the pEC50 was 8.78 and the “Emax % 5-HT (± SEM)” value was 103.2 ± 1.0 % 5-HT. For the same compound, in series [2], the pEC50 was 6.67 and the “Emax % 5-HT (± SEM)” value came to 84.2 ± 1.0 % 5-HT.

As for `C=CCN(C)CCc1c[nH]c2cccc(O[C@H]3O[C@H](CO)[C@@H](O)[C@H](O)[C@H]3O)c12` (stereo in doubt) [Hydrolyzed Compound A-8, 2-((3-(2-(allyl(methyl)amino)ethyl)-1H-indol-4-yl)oxy)-6-(hydroxymethyl)tetrahydro-2H-pyran-3,4,5-triol], in series [1], the pEC50 is 8.44 and the “Emax % 5-HT (± SEM)” value is 102 ± 1.0 % 5-HT. For the same compound, in series [2], the pEC50 is 7.31 and the “Emax % 5-HT (± SEM)” value is 81.5 ± 2.4 % 5-HT.

For the compound `CC(C)N(CCc1c[nH]c2cccc(O[C@H]3O[C@H](CO)[C@@H](O)[C@H](O)[C@H]3O)c12)C(C)C` [Hydrolyzed Compound A-7, 2-((3-(2-(diisopropylamino)ethyl)-1H-indol-4-yl)oxy)-6-(hydroxymethyl)tetrahydro-2H-pyran-3,4,5-triol], in series [3], the “conversion by human saliva” value is recorded as “completely deglycosylated”.

For orientation: pEC50 means −log10 of the EC50, conventionally taken in molar units.
